The source of these data is paper PMC8976073 (Nature Communications, 2022).

The target of experiment [1] is T1, FPR2 (Homo sapiens, UniProt P25090).
T1 construct: expressed in transfected cells; host or cells: HEK293F cells, pTT5 vector, co-transfected with GαΔ6qi4myr (1:2 w/w)
T1 sequence (P25090 1-351): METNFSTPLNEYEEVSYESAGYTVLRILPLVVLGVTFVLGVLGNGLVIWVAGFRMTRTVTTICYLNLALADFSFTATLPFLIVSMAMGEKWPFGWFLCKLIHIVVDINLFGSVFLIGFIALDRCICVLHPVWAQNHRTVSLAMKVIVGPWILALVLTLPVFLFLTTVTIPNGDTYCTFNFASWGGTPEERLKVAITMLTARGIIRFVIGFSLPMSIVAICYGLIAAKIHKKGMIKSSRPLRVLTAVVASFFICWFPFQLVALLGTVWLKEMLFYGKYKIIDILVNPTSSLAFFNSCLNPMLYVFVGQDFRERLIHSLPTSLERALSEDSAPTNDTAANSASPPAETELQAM
The experiment is described as follows: Inositol-phosphate (IP) accumulation assay, FPR2 (wild type and mutants) with chimeric GαΔ6qi4myr in HEK293F cells. As to conditions: FPR2 WT; mean ± SEM; SEM. It counts as cell-based. Here is the method: (§1) Flag-tagged wild-type FPR1 and FPR2 and mutants were cloned into the pTT5 vector and expressed in HEK293F cells. Cells were cotransfected with the plasmids of receptor and a chimeric Gα protein GαΔ6qi4myr, which redirects the Gαi signaling pathway to the Gαq phospholipase-C pathway, at a ratio of 1:2 (w/w), and were harvested 48 h post transfection. The cell-surface expression was measured as described above.
(§2) The IP-One Gq assay kit (Cisbio Bioassays, 62IPAPEB) was used to measure the peptide agonist-induced IP production. […] Then, the cells were supplemented with 3 μl cryptate-labeled anti-IP1 monoclonal antibody (1:20 diluted in lysis and detection buffer) and 3 μl d2-labeled IP1, and incubated at room temperature for another 1 h. […] The accumulation of IP1, EC50, and pEC50 were calculated using nonlinear regression (curve fit) according to a standard dose–response curve in GraphPad Prism 8.0 (GraphPad software).

The target in experiment [2] is T2, FPR2 (Homo sapiens, UniProt P25090, F110A).
T2 construct: expressed in transfected cells; host or cells: HEK293F cells, pTT5 vector, co-transfected with GαΔ6qi4myr (1:2 w/w)
T2 sequence (P25090 1-351 F110A): T1 sequence (P25090 1-351) with F110A
The experiment is described as above. As to conditions: FPR2 F110A. It counts as cell-based. Here is the method:
as §1, §2

Where a chain is given by its changes, count along the chain named.

The term EC50 denotes the midpoint of the concentration-response curve. With `CC[C@H](C)[C@H](NC(=O)[C@H](CCC(=O)O)NC(=O)[C@H](CO)NC(=O)[C@@H](NC(=O)[C@H](CC(C)C)NC(=O)[C@H](CC(C)C)NC(=O)[C@H](CC(C)C)NC(=O)[C@H](CC(C)C)NC(=O)[C@H](CS)NC(=O)[C@H](CO)NC(=O)[C@H](Cc1ccccc1)NC(=O)CNC(=O)[C@H](CCCNC(=N)N)NC(=O)[C@@H]1CCCN1C(=O)[C@H](C)NC(=O)[C@H](CCSC)NC=O)[C@@H](C)O)C(=O)N[C@@H](CC(=O)O)C(=O)N[C@@H](CC(C)C)C(=O)N1CCC[C@H]1C(=O)N[C@H](C(=O)N[C@@H](CCCCN)C(=O)N[C@@H](CCCNC(=N)N)C(=O)N[C@@H](CCCNC(=N)N)C(=O)N[C@@H](C)C(=O)O)C(C)C` [fHN, N-formyl humanin], the EC50 at FPR2 [1] was 126 nM; on FPR2 [2], 110 nM.
